Assay results as given in PMC9304322, “Targeting retinoic acid receptor alpha-corepressor interaction activates chaperone-mediated autophagy and protects against retinal degeneration” (Nature Communications, 2022).
Where “and” joins values, the source holds several entries; their conditions need not be identical. Equal values may be shown once.

Columns and labels:
[1] = tested on: NIH3T3 stably expressing the KFERQ-PS-Dendra; assay: CMA activity, KFERQ-PS-Dendra fluorescent reporter in NIH3T3 mouse fibroblasts; type: cell-based; design: CMA activity (Fig. 1d), MEAN / CMA activity (Fig. 1e-g), mean / CMA activity (Fig. 1d), individual experiments / CMA activity, mean (Fig. S2c, second panel) / CMA activity, mean (Fig. S2c, first panel) / CMA activity, mean (Fig. S2c, third panel): unit not given here; conditions: for CMA activity (Fig. 1e-g), mean: n = 4
Experimental: (§1) Cells were transduced with lentivirus carrying the KFERQ-PS-Dendra reporter as before. Cells were photoactivated by exposure to a 3.5 mA (current constant) light emitting diode (LED: Norlux, 405 nm) for 3 min and then plated in glass-bottom 96 well plates. At the desired times, cells were fixed with 4% PFA and imaged using high-content microscopy (Operetta system, Perkin Elmer). Images were quantified using the manufacturer’s software in a minimum of 1,200 cells in 9 independent fields per well. […] This was particularly important in the case of primary human cells where the efficiency of transduction was ~65%. To avoid confounding effects for drug-induced changes in cell volume or adherence to the plate that could bring a fraction of the cells per field outside of focus, we set a threshold to count only […] that have at least 1/10 of the average number of […] detected in the untreated wells for each cell type (3–4 puncta/cell in the case of NIH3T3 and N2a cells and 5 puncta/cell in primary human fibroblasts).

[2] = tested on: neuroblastoma cell line N2a expressing the KFERQ-PS-Dendra reporter; assay: CMA activity, KFERQ-PS-Dendra reporter in N2a cells; type: cell-based, mouse; design: CMA activity, mean (Fig. S2a): unit not given here
Experimental: as §1

[3] = tested on: NIH3T3; assay: Intracellular proteolysis of long half-life proteins; type: cell-based, mouse
Experimental: Confluent cells were labelled with [^3H]leucine (2μCi/ml) (NEN-PerkinElmer Life Sciences) for 48 h and then extensively washed and maintained in medium with an excess of unlabeled leucine. Proteolysis was calculated from aliquots of the medium taken at different times and precipitated in trichloroacetic acid, as the amount of acid-precipitable radioactivity transformed to acid-soluble radioactivity at each time. Where indicated cell were treated during the chase with […] leupeptin (Sigma, #108975) and […] NH4Cl (to determine lysosomal degradation) or with 100 μm MRT 68921 dihydrochloride (Tocris, #5780) (to determine macroautophagy degradation).

[4] = tested on: NIH3T3 cells stably expressing the mCherry-GFP-LC3 reporter; assay: Macroautophagy activity, mCherry-GFP-LC3 reporter; type: cell-based, mouse
Experimental: Cells were transduced with a lentiviral vector expressing mCherry-GFP-LC3[35], fixed and flux determined as the conversion of dual fluorescence puncta (autophagosomes) into only red fluorescent puncta (autolysosomes). Flux was also measured by immunoblot for LC3 in cells incubated for 6 h with 20 mM NH4Cl/100 μM leupeptin, by discounting the intensity of LC3 in non-treated cells from that in cells treated with the inhibitors.

[5] = c0 = 2 (axis unlabelled; ANOVA calls row factor Time)

SMILES: Cc1ccc(C2=Nc3ccc(Cl)cc3OC2)cc1 [AR7, reference compound]
- CMA activity (Fig. 1d), MEAN ([1]; 20 μM of each compound, n = 3 independent experiments): 1.943
- CMA activity (Fig. 1d), individual experiments ([1]; 20 μM of each compound, single experiments): 1.682 and 2.334 and 1.814
- CMA activity (Fig. 1e-g), mean ([1]; 12h, concentration 0.02 (unit not given)): 12.0505
- CMA activity (Fig. 1e-g), mean ([1]; 12h, concentration 0.2): 11.7342
- CMA activity (Fig. 1e-g), mean ([1]; 12h, concentration 2): 11.803
- CMA activity (Fig. 1e-g), mean ([1]; 12h, concentration 5): 19.8949
- CMA activity (Fig. 1e-g), mean ([1]; 12h, concentration 10): 20.5334
- CMA activity (Fig. 1e-g), mean ([1]; 12h, concentration 20): 21.2219
- CMA activity (Fig. 1e-g), mean ([1]; 12h, concentration 30): 22.9989
- CMA activity (Fig. 1e-g), mean ([1]; 12h, concentration 40): 22.6487
- CMA activity (Fig. 1e-g), mean ([1]; 12h, concentration 50): 26.5841
- CMA activity (Fig. 1e-g), mean ([1]; 24h, concentration 0.02): 9.918
- CMA activity (Fig. 1e-g), mean ([1]; 24h, concentration 0.2): 11.4731
- CMA activity (Fig. 1e-g), mean ([1]; 24h, concentration 2): 13.7252
- CMA activity (Fig. 1e-g), mean ([1]; 24h, concentration 5): 18.3275
- CMA activity (Fig. 1e-g), mean ([1]; 24h, concentration 10): 23.1811
- CMA activity (Fig. 1e-g), mean ([1]; 24h, concentration 20): 24.726
- CMA activity (Fig. 1e-g), mean ([1]; 24h, concentration 30): 25.9835
- CMA activity (Fig. 1e-g), mean ([1]; 24h, concentration 40): 28.2999
- CMA activity (Fig. 1e-g), mean ([1]; 24h, concentration 50): 27.6884
- CMA activity (Fig. 1h-j), mean, untreated (0) = 1 ([1]; concentration 0.2, 12+12w (12 h, then 12 h after washing out)): 0.9356
- CMA activity (Fig. 1h-j), mean, untreated (0) = 1 ([1]; concentration 0.2, 12h): 1.057
- CMA activity (Fig. 1h-j), mean, untreated (0) = 1 ([1]; concentration 0.2, 24h): 0.9789
- CMA activity (Fig. 1h-j), mean, untreated (0) = 1 ([1]; concentration 2, 12+12w): 0.9942
- CMA activity (Fig. 1h-j), mean, untreated (0) = 1 ([1]; concentration 2, 12h): 1.064
- CMA activity (Fig. 1h-j), mean, untreated (0) = 1 ([1]; concentration 2, 24h): 1.171
- CMA activity (Fig. 1h-j), mean, untreated (0) = 1 ([1]; concentration 5, 12+12w): 1.015
- CMA activity (Fig. 1h-j), mean, untreated (0) = 1 ([1]; concentration 5, 12h): 1.7927
- CMA activity (Fig. 1h-j), mean, untreated (0) = 1 ([1]; concentration 5, 24h): 1.564
- CMA activity (Fig. 1h-j), mean, untreated (0) = 1 ([1]; concentration 10, 12+12w): 0.9858
- CMA activity (Fig. 1h-j), mean, untreated (0) = 1 ([1]; concentration 10, 12h): 1.85
- CMA activity (Fig. 1h-j), mean, untreated (0) = 1 ([1]; concentration 10, 24h): 1.978
- CMA activity (Fig. 1h-j), mean, untreated (0) = 1 ([1]; concentration 20, 12+12w): 0.9968
- CMA activity (Fig. 1h-j), mean, untreated (0) = 1 ([1]; concentration 20, 12h): 1.912
- CMA activity (Fig. 1h-j), mean, untreated (0) = 1 ([1]; concentration 20, 24h): 2.11
- CMA activity (Fig. 1h-j), mean, untreated (0) = 1 ([1]; concentration 30, 12+12w): 1.224
- CMA activity (Fig. 1h-j), mean, untreated (0) = 1 ([1]; concentration 30, 12h): 2.072
- CMA activity (Fig. 1h-j), mean, untreated (0) = 1 ([1]; concentration 30, 24h): 2.217
- CMA activity, mean relative to concentration 0 = 1 (Fig. S2b) ([2]; 12+12w, concentration 0.2): 0.9288
- CMA activity, mean relative to concentration 0 = 1 (Fig. S2b) ([2]; 12+12w, concentration 2): 0.9525
- CMA activity, mean relative to concentration 0 = 1 (Fig. S2b) ([2]; 12+12w, concentration 5): 0.9471
- CMA activity, mean relative to concentration 0 = 1 (Fig. S2b) ([2]; 12+12w, concentration 10): 0.8786
- CMA activity, mean relative to concentration 0 = 1 (Fig. S2b) ([2]; 12+12w, concentration 20): 0.875
- CMA activity, mean relative to concentration 0 = 1 (Fig. S2b) ([2]; 12+12w, concentration 30): 0.9362
- CMA activity, mean (Fig. S2a) ([2]; 12h, concentration 0.02): 5.372
- CMA activity, mean (Fig. S2a) ([2]; 12h, concentration 0.2): 5.3273
- CMA activity, mean relative to concentration 0 = 1 (Fig. S2b) ([2]; 12h, concentration 0.2): 1.02
- CMA activity, mean (Fig. S2a) ([2]; 12h, concentration 2): 5.394
- CMA activity, mean relative to concentration 0 = 1 (Fig. S2b) ([2]; 12h, concentration 2): 1.033
- CMA activity, mean (Fig. S2a) ([2]; 12h, concentration 5): 6.224
- CMA activity, mean relative to concentration 0 = 1 (Fig. S2b) ([2]; 12h, concentration 5): 1.192
- CMA activity, mean (Fig. S2a) ([2]; 12h, concentration 10): 5.944
- CMA activity, mean relative to concentration 0 = 1 (Fig. S2b) ([2]; 12h, concentration 10): 1.138
- CMA activity, mean (Fig. S2a) ([2]; 12h, concentration 20): 6.2128
- CMA activity, mean relative to concentration 0 = 1 (Fig. S2b) ([2]; 12h, concentration 20): 1.19
- CMA activity, mean (Fig. S2a) ([2]; 12h, concentration 30): 6.043
- CMA activity, mean relative to concentration 0 = 1 (Fig. S2b) ([2]; 12h, concentration 30): 1.157
- CMA activity, mean (Fig. S2a) ([2]; 12h, concentration 40): 6.596
- CMA activity, mean (Fig. S2a) ([2]; 12h, concentration 50): 6.394
- CMA activity, mean (Fig. S2a) ([2]; 12h, concentration 60): 6.271
- CMA activity, mean (Fig. S2a) ([2]; 24h, concentration 0.02): 5.48
- CMA activity, mean (Fig. S2a) ([2]; 24h, concentration 0.2): 5.351
- CMA activity, mean relative to concentration 0 = 1 (Fig. S2b) ([2]; 24h, concentration 0.2): 0.8724
- CMA activity, mean (Fig. S2a) ([2]; 24h, concentration 2): 5.879
- CMA activity, mean relative to concentration 0 = 1 (Fig. S2b) ([2]; 24h, concentration 2): 0.9586
- CMA activity, mean (Fig. S2a) ([2]; 24h, concentration 5): 6.0743
- CMA activity, mean relative to concentration 0 = 1 (Fig. S2b) ([2]; 24h, concentration 5): 0.9904
- CMA activity, mean (Fig. S2a) ([2]; 24h, concentration 10): 6.105
- CMA activity, mean relative to concentration 0 = 1 (Fig. S2b) ([2]; 24h, concentration 10): 0.9953
- CMA activity, mean (Fig. S2a) ([2]; 24h, concentration 20): 6.658
- CMA activity, mean relative to concentration 0 = 1 (Fig. S2b) ([2]; 24h, concentration 20): 1.086
- CMA activity, mean (Fig. S2a) ([2]; 24h, concentration 30): 7.455
- CMA activity, mean relative to concentration 0 = 1 (Fig. S2b) ([2]; 24h, concentration 30): 1.2156
- CMA activity, mean (Fig. S2a) ([2]; 24h, concentration 40): 8.122
- CMA activity, mean (Fig. S2a) ([2]; 24h, concentration 50): 8.426
- CMA activity, mean (Fig. S2a) ([2]; 24h, concentration 60): 8.941
- duration of the increase in degradation of long-lived proteins ([3]; NIH3T3, 10 μM): sustained only for the first 12 h
- Lysosomal proteolysis, Mean (Fig. S3c) ([3]; Time 6): 3.18
- Lysosomal proteolysis, Mean (Fig. S3c) ([3]; Time 12): 5.83
- effect on macroautophagy ([4]; NIH3T3, MRT-sensitive proteolysis, LC3-II flux, mCherry-GFP-LC3 reporter): did not have the inhibitory effect on macroautophagy
- APG (Fig. S3e) [4, 5]: 0.9242
- AUT (Fig. S3e) [4, 5]: 2.505
- AV (Fig. S3e) [4, 5]: 3.429
- APG (Fig. S3e) ([4]; c0 = 5 (axis unlabelled)): 0.8222
- AUT (Fig. S3e) ([4]; c0 = 5 (axis unlabelled)): 2.321
- AV (Fig. S3e) ([4]; c0 = 5 (axis unlabelled)): 3.1431
- APG (Fig. S3e) ([4]; c0 = 10 (axis unlabelled)): 0.7738
- AUT (Fig. S3e) ([4]; c0 = 10 (axis unlabelled)): 2.246
- AV (Fig. S3e) ([4]; c0 = 10 (axis unlabelled)): 3.0194
- APG (Fig. S3e) ([4]; c0 = 15 (axis unlabelled)): 0.7216
- AUT (Fig. S3e) ([4]; c0 = 15 (axis unlabelled)): 2.244
- AV (Fig. S3e) ([4]; c0 = 15 (axis unlabelled)): 2.965
- APG (Fig. S3e) ([4]; c0 = 20 (axis unlabelled)): 0.9029
- AUT (Fig. S3e) ([4]; c0 = 20 (axis unlabelled)): 2.059
- AV (Fig. S3e) ([4]; c0 = 20 (axis unlabelled)): 2.962
- APG (Fig. S3e) ([4]; c0 = 25 (axis unlabelled)): 0.9112
- AUT (Fig. S3e) ([4]; c0 = 25 (axis unlabelled)): 2.774
- AV (Fig. S3e) ([4]; c0 = 25 (axis unlabelled)): 3.685
- APG (Fig. S3e) ([4]; c0 = 30 (axis unlabelled)): 0.9867
- AUT (Fig. S3e) ([4]; c0 = 30 (axis unlabelled)): 2.8387
- AV (Fig. S3e) ([4]; c0 = 30 (axis unlabelled)): 3.825
- APG (Fig. S3e) ([4]; c0 = 40 (axis unlabelled)): 1.111
- AUT (Fig. S3e) ([4]; c0 = 40 (axis unlabelled)): 2.723
- AV (Fig. S3e) ([4]; c0 = 40 (axis unlabelled)): 3.834
- APG (Fig. S3e) ([4]; c0 = 50 (axis unlabelled)): 0.7488
- AUT (Fig. S3e) ([4]; c0 = 50 (axis unlabelled)): 3.18
- AV (Fig. S3e) ([4]; c0 = 50 (axis unlabelled)): 3.929
